These compounds were tested against PIK3CG (human) (UniProt P48736) (assay: Assessment of PIK3CG Kinase Activity).
Chain of PIK3CG (human) (P48736 whole entry, looked up): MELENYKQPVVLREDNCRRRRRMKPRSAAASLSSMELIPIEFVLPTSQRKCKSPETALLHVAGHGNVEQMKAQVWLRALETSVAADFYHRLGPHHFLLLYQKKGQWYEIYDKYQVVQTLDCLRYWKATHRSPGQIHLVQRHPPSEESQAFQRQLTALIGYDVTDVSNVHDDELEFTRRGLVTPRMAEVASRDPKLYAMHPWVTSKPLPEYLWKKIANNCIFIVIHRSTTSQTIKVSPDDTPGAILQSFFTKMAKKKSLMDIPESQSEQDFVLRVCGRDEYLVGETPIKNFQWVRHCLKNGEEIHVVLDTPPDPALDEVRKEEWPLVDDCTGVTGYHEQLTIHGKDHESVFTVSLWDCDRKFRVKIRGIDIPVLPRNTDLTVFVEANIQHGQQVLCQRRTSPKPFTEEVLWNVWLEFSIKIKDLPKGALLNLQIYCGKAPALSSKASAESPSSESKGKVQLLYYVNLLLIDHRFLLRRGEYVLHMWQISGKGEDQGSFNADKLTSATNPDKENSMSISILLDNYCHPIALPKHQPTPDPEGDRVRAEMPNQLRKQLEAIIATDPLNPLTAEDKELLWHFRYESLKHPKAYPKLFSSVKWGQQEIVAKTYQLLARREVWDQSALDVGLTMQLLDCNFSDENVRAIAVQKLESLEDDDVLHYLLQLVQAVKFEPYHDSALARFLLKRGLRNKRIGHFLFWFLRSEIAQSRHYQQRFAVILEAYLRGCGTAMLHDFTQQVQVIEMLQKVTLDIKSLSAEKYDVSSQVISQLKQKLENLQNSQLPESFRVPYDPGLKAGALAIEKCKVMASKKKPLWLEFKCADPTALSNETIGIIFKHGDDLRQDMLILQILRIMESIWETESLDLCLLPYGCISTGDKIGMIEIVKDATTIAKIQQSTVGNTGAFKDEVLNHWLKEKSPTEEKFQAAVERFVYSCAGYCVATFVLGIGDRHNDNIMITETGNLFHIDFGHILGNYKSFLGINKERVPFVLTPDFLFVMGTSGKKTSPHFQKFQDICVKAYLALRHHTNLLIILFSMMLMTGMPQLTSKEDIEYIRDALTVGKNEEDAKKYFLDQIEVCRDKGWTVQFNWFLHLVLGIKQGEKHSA

| SMILES | IC50 [nM] |
| --- | --- |
| CC(=O)Nc1nc2c(s1)-c1c(c(C(C)C)nn1-c1ccc(C(=O)NCc3ccncc3)cc1Cl)CC2 | < 800 |
| COCc1nn(-c2ccc(C(=O)N(C)C3CCN(C)CC3)cc2Cl)c2c1CCc1nc(NC(C)=O)sc1-2 | < 800 |
| CC(=O)Nc1nc2c(s1)-c1c(cnn1-c1ccc(C(=O)N[C@@H](CCCCN)C(N)=O)cc1Cl)CC2 | < 800 |
| CC(=O)Nc1nc2c(s1)-c1nc(-c3ccccc3)ncc1CC2 | < 800 |
| Nc1ncc2c(n1)-c1sc(N)nc1CC2 | < 800 |
| CC(=O)Nc1nc2c(s1)-c1c(cnn1-c1ccc(C(=O)N[C@H](CCCCN)C(N)=O)cc1Cl)CC2 | < 800 |
| CC(=O)Nc1nc2c(s1)-c1c(cnn1-c1ccc(C(=O)N[C@H](C(N)=O)c3ccccc3)cc1Cl)CC2 | < 800 |
| CC(=O)Nc1ncc2c(n1)-c1sc(NC(C)=O)nc1CC2 | < 800 |
| COc1ccccc1-c1ncc2c(n1)-c1sc(NC(N)=O)nc1CC2 | < 800 |
| CC(=O)Nc1nc2c(s1)-c1c(cnn1-c1ccc(C(=O)N[C@@H](C(N)=O)C(C)C)cc1Cl)CC2 | < 800 |
| CC(=O)Nc1nc2c(s1)-c1c(c(-c3ccccc3)nn1-c1ccccc1Br)CC2 | < 800 |
| CCCC(=O)n1cc2c(n1)-c1sc(NC(C)=O)nc1CC2 | < 800 |
| CC(=O)Nc1nc2c(s1)-c1c(cnn1-c1ccc(C(=O)N[C@@H](Cc3cccnc3)C(N)=O)cc1Cl)CC2 | < 800 |
| CC(=O)Nc1nc2c(s1)-c1nc(N(C)CCCN(C)C)ncc1CC2 | < 800 |
| CC(=O)Nc1nc2c(s1)-c1c(c(-c3cn(C)cn3)nn1-c1ccccc1C)CC2 | < 800 |
| CC(=O)Nc1nc2c(s1)-c1nc(NCCCC(=O)O)ncc1CC2 | < 800 |
| O=C(Nc1nc2c(s1)-c1nc(-c3ccccc3)ncc1CC2)N1CCOCC1 | < 800 |
| CC(=O)Nc1nc2c(s1)-c1c(cnn1-c1ccc(C(=O)N[C@H](Cc3cc4ccccc4[nH]3)C(N)=O)cc1Cl)CC2 | < 800 |
| NC(=O)Nc1nc2c(s1)-c1nc(-c3ccccc3)ncc1CC2 | < 800 |
| CC=Cn1cc2c(n1)-c1sc(NC(C)=O)nc1CC2 | < 800 |

| SMILES | IC50 [nM] |
| --- | --- |
| CN(C)CCN(C)C(=O)Nc1nc2c(s1)-c1c(cnn1-c1ccccc1)C2 | < 800 |
| CC(=O)Nc1nc2c(s1)-c1cc([N+](=O)[O-])ccc1CC2 | < 800 |
| COc1ccccc1-c1ncc2c(n1)-c1sc(NC(C)=O)nc1CC2 | < 800 |
| CCCn1ncc2c1-c1sc(NC(C)=O)nc1CC2 | < 800 |
| CC(=O)Nc1nc2c(s1)-c1nc(N3CCCC3=O)ncc1CC2 | < 800 |
| CC(=O)Nc1nc2c(s1)-c1nc(-c3ccc(C)cc3)ncc1CC2 | < 800 |
| CC(=O)Nc1nc2c(s1)-c1c(c(C(C)C)nn1-c1ccc(C(=O)N(C)C3CCN(C)CC3)cc1Cl)CC2 | < 800 |
| CC(=O)Nc1nc2c(s1)-c1nc(Cc3c(Cl)cccc3Cl)ncc1CC2 | < 800 |
| CNCCNC(=O)Nc1nc2c(s1)-c1nc(-c3ccccc3)ncc1CC2 | < 800 |
| CNC(=O)c1ccc(-n2nc(-c3ccco3)c3c2-c2sc(NC(C)=O)nc2CC3)c(Cl)c1 | < 800 |
| CCN1CCCC1CNCC(=O)Nc1nc2c(s1)-c1c(cnn1-c1ccccc1)CC2 (stereo not drawn) | < 800 |
| CN(C)CCCC(=O)Nc1nc2c(s1)-c1c(c(-c3ccccc3)nn1-c1ccccc1Cl)CC2 | < 800 |
| CCN(CCO)C(=O)c1nn(-c2ccccc2)c2c1CCc1nc(NC(C)=O)sc1-2 | < 800 |
| CC(=O)Nc1nc2c(s1)-c1c(cnn1CCC(C)C)CC2 | < 800 |
| CC(=O)Nc1nc2c(s1)-c1c(c(-c3ccoc3)nn1-c1ccccc1)CC2 | < 800 |
| CC(=O)Nc1nc2c(s1)-c1c(c(-c3ccccn3)nn1-c1ccccc1)CC2 | < 800 |
| CCCCn1ncc2c1-c1sc(NC(C)=O)nc1CC2 | < 800 |
| COc1ccccc1-n1nc(-c2ccco2)c2c1-c1sc(NC(C)=O)nc1CC2 | < 800 |
| CCSc1ncc2c(n1)-c1sc(NC(C)=O)nc1CC2 | < 800 |

Other lines, results leading:

| IC50 [nM] | SMILES |
| --- | --- |
| < 800 | CC(=O)Nc1nc2c(s1)-c1c(cnn1-c1ccc(C(=O)N[C@H]3CC[C@@H](N4CCN(CC5CC5)CC4)CC3)cc1)CC2 |
| < 800 | CC(=O)Nc1nc2c(s1)-c1c(cnn1-c1ccc(C(=O)N3CCC(CO)CC3)cc1)CC2 |
| < 800 | CC(=O)Nc1nc2c(s1)-c1c(cnn1-c1ccc(C(=O)NCC(F)(F)F)cc1)CC2 |
| < 800 | CC(=O)Nc1nc2c(s1)-c1c(cnn1-c1ccc(C(=O)N[C@H]3CC[C@@H](N4CCC(C)(C)CC4)CC3)cc1)CC2 |
| < 800 | CC(=O)Nc1nc2c(s1)-c1c(cnn1-c1ccc(C(=O)NCc3ccccc3C(N)=O)cc1)CC2 |
| < 800 | CC(=O)Nc1nc2c(s1)-c1c(cnn1-c1ccc(C(=O)N[C@H]3CC[C@H](N4CCN(C)CC4)CC3)cc1)CC2 |
| < 800 | CC(=O)Nc1nc2c(s1)-c1c(cnn1-c1ccc(C(=O)N3CCC[C@@H]3C(N)=O)cc1)CC2 |
| < 800 | CC(=O)Nc1nc2c(s1)-c1c(cnn1-c1ccc(CC(=O)N3CCN(C(C)=O)CC3)cc1)CC2 |
| < 800 | CC(=O)Nc1nc2c(s1)-c1nn(-c3ccc(C(=O)NC4CCN(C5CCCC5)CC4)cc3Cl)c(-c3ccco3)c1CC2 |
| < 800 | CC(=O)Nc1nc2c(s1)-c1c(cnn1-c1ccc(C(=O)N(C)CC(=O)N3CCOCC3)cc1)CC2 |
| < 800 | CC(=O)Nc1nc2c(s1)-c1c(cnn1-c1ccc(S(=O)(=O)O)cc1)CC2 |
| < 800 | CC(=O)Nc1nc2c(s1)-c1c(cnn1-c1ccc(C(=O)NCc3nc4ccccc4[nH]3)cc1)CC2 |
| < 800 | CC(=O)Nc1nc2c(s1)-c1c(cnn1-c1ccc(C(=O)N3CCC(N4CCCCC4)CC3)cc1)CC2 |
| < 800 | CCCN(CC)C(=O)Cc1ccc(-n2ncc3c2-c2sc(NC(C)=O)nc2CC3)cc1 |
| < 800 | CC(=O)Nc1nc2c(s1)-c1c(cnn1-c1ccc(C(=O)N3CCC(N4CCCS4(=O)=O)CC3)cc1)CC2 |
| < 800 | CC(=O)Nc1nc2c(s1)-c1c(cnn1-c1ccc(C(=O)NC(C)(C)CN3CCCCC3)cc1)CC2 |
| < 800 | CC(=O)Nc1nc2c(s1)-c1c(c(C(C)C)nn1-c1ccc(C(=O)NC3CCN(C)CC3)cc1Cl)CC2 |
| < 800 | CC(=O)Nc1nc2c(s1)-c1c(cnn1-c1ccc(CC(=O)NCCCN(C)C)cc1)CC2 |
| < 800 | CC(=O)Nc1nc2c(s1)-c1c(cnn1-c1ccc(C(=O)O)cc1)CC2 |
| < 800 | CC(=O)Nc1nc2c(s1)-c1c(cnn1-c1ccc(C(=O)N3CCC(NC(=O)Cc4ccccc4)CC3)cc1)CC2 |
| < 800 | CC(=O)Nc1nc2c(s1)-c1c(cnn1-c1ccc(N3C4CCC3CC(O)C4)cc1)CC2 (stereo not drawn) |
| < 800 | CC(=O)Nc1nc2c(s1)-c1c(cnn1-c1ccc(CC(=O)N3CCCC(C(N)=O)C3)cc1)CC2 (stereo not drawn) |
| < 800 | CC(=O)Nc1nc2c(s1)-c1c(cnn1-c1ccc(C(=O)Nc3ccc(NC(C)(C)CN(C)C)cc3)cc1)CC2 |
| < 800 | CC(=O)Nc1nc2c(s1)-c1c(cnn1-c1ccc(C(=O)N[C@H]3CCc4nc(N)sc4C3)cc1Cl)CC2 |
| < 800 | CC(=O)Nc1nc2c(s1)-c1c(cnn1-c1ccc(C(=O)N3CCC(C(N)=O)CC3)cc1)CC2 |
| < 800 | CC(=O)Nc1nc2c(s1)-c1c(c([C@H]3CCCO3)nn1-c1ccc(C(=O)N[C@H]3CC[C@@H](N4CCCC4)CC3)cc1Cl)CC2 |
| < 800 | CC(=O)Nc1nc2c(s1)-c1c(cnn1-c1ccc(C(=O)NCCCN(C)C)cc1)CC2 |
| < 800 | CC(=O)Nc1nc2c(s1)-c1c(cnn1-c1ccc(C(=O)N(C)Cc3nccn3C)cc1)CC2 |
| < 800 | CC(=O)Nc1nc2c(s1)-c1c(cnn1-c1ccc(C(F)(F)F)cc1)CC2 |

— the Kinase Knowledgebase extract (Sharma et al. 2016)
